{"source": "paper PMC2933614", "about": "“Quantitative in vitro and in vivo pharmacological profile of CE-178253, a potent and selective cannabinoid type 1 (CB1) Receptor Antagonist” (BMC Pharmacology, 2010)", "assay": "Indirect calorimetry", "type": "in vivo, rat", "settings": "for Respiratory Quotient (VCO2/VO2): veh 0.85 ± 0.03; for VO2, ave, 1-3 hr (± S-D), increase in oxygen consumption: veh 3 ± 5", "description": "Whole body oxygen consumption was measured using an indirect calorimeter (Oxymax from Columbus Instruments, Columbus, OH) in male Sprague Dawley rats. The rats (300-380 g body weight) were placed in the calorimetry chambers and the chambers were placed in activity monitors. All studies were conducted during the light cycle. Prior to the measurement of oxygen consumption, the rats were fed standard chow ad libitum. During the measurement of oxygen consumption, food was not provided to the rats. Basal, pre-dose oxygen consumption and ambulatory activity were measured every 10 min for 2.5 to 3 hr. At the end of the basal pre-dosing period, the chambers were opened and the animals were administered a single dose of compound (or veh.) by oral gavage. CE-178253 was prepared in 0.5% methylcellulose as veh. Oxygen consumption and ambulatory activity were measured every 10 min for an additional 1-6 hr after dosing. Resting oxygen consumption, during pre- and post-dosing, was calculated by averaging the 10-min O2 consumption values, excluding periods of high ambulatory activity (ambulatory activity count > 100) and excluding the first 5 values of the pre-dose period and the first value from the post-dose period. Change in oxygen consumption is reported as percent and is calculated by dividing the post-dosing resting oxygen consumption by the pre-dose oxygen consumption (X 100). VO2, VCO2, RER and locomotor activity were all measured.", "note": "“And” between values parts separate entries of the source, which are not always exact repeats. Equal values may be shown once.", "data": [{"smiles": "CCNC1(C(N)=O)CN(c2nc(C)nc3c(-c4ccc(Cl)cc4)c(-c4ccccc4Cl)nn23)C1", "note": "[CE-178253]", "values": [{"measurement": "Respiratory Quotient (VCO2/VO2)", "setting": "1 mg/kg p.o.", "result": "0.74 ± 0.02"}, {"measurement": "VO2, ave, 1-3 hr (± S-D), increase in oxygen consumption", "setting": "1 mg/kg p.o.", "result": "28% and 28 ± 7 %"}, {"measurement": "Respiratory Quotient (VCO2/VO2)", "setting": "3 mg/kg p.o.", "result": "0.75 ± 0.03"}, {"measurement": "VO2, ave, 1-3 hr (± S-D), increase in oxygen consumption", "setting": "3 mg/kg p.o.", "result": "39% and 39 ± 5 %"}, {"measurement": "Respiratory quotient after dosing", "setting": "declined from 0.85 over the first hr, dose not stated", "result": 0.75}, {"measurement": "Acute stimulation of energy expenditure", "setting": "rats, dose not stated", "result": "greater than 30%"}]}]}
